Reference: PubChem BioAssay (NCI)
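Test compounds were applied to cells in 96-well plates for 48 hours at 5 doses. Here, GI50 denotes the concentration required for 50% inhibition of growth. At the TGI there is no net growth.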

Experiments:
Assay in all cases: inhibition of tumour cell growth, NCI panel, 48 h
[1] = test system: UACC-257 melanoma
[2] = test system: TK-10 renal
[3] = test system: 786-0 renal
[4] = test system: ACHN renal
[5] = test system: MDA-MB-231 breast
[6] = test system: NCI-H460 lung
[7] = test system: SW-620 colon
[8] = test system: PC-3 prostate
[9] = test system: NCI/ADR-RES ovarian
[10] = test system: RXF 393 renal

| Compound | GI50 [1] [µM] | TGI [1] [µM] | GI50 [2] [µM] | TGI [2] [µM] | GI50 [3] [µM] | TGI [3] [µM] | GI50 [4] [µM] | TGI [4] [µM] | GI50 [5] [µM] | TGI [5] [µM] | GI50 [6] [µM] | TGI [6] [µM] | GI50 [7] [µM] | TGI [7] [µM] | GI50 [8] [µM] | TGI [8] [µM] | GI50 [9] [µM] | TGI [9] [µM] | GI50 [10] [µM] | TGI [10] [µM] |
| --- | --- | --- | --- | --- | --- | --- | --- | --- | --- | --- | --- | --- | --- | --- | --- | --- | --- | --- | --- | --- |
| COc1ccc(Nc2cc(C)nc(NCCCNc3ccnc4cc(Cl)ccc34)n2)cc1 | 1.84 | 3.51 | 1.89 | 3.41 | 1.67 | 3.26 | 1.61 | 3.16 | 1.55 | 3.31 | 1.78 | 3.8 | 1.61 | 3.51 | 2.35 | 9.9 | 2.38 | 6.27 | – | – |
| COc1ccccc1NC(=O)c1nc2ccc([N+](=O)[O-])cc2nc1C | – | > 100 | – | > 100 | – | > 100 | – | > 100 | – | – | – | > 100 | – | > 100 | – | – | – | – | – | – |
| OCc1ccc(N2CCc3ccccc3C2)cc1Cl | – | – | – | – | 16.6 | 51.7 | 18.4 | > 78.6 | 12.4 | 40.8 | < 0.0179 | 0.174 | < 0.0218 | > 100 | 17.2 | > 62.3 | 5.13 | 39.8 | 13.5 | 28.8 |
| CC(=O)c1cc(C(=O)c2ccc3c(c2)Sc2ccccc2N3)c2cc(C)ccn12 | – | – | > 100 | > 100 | 0.0965 | > 100 | 0.0816 | > 100 | 0.348 | > 100 | 0.0465 | > 100 | 0.0559 | > 100 | 0.0506 | > 100 | 0.0369 | > 100 | 0.0411 | > 100 |
| N/N=c1\c2ccccc2c2cc3c(cc12)/c(=N/N)c1ccccc13 | – | > 100 | – | – | – | > 100 | – | > 100 | – | – | – | > 100 | – | > 100 | – | – | – | – | – | > 100 |
| O=C(/C(=C\c1ccc(Cl)cc1)c1ccccc1)c1ccccc1 | – | > 100 | – | > 100 | – | > 100 | – | > 100 | – | – | – | > 100 | – | > 100 | – | – | – | – | – | – |
| Clc1cc(Cl)cc(N2N=C(c3cccc(Nc4ccncc4)c3)CC2c2ccc3c(c2)OCO3)c1 (configuration not stated) | – | – | – | – | 1.69 | 3.14 | 1.69 | 3.06 | 1.37 | 2.72 | 1.76 | 3.34 | 1.67 | 3.29 | 1.59 | 3.18 | – | – | – | – |
| OCc1c[te]c(-c2ccccc2)c1 | – | > 100 | – | > 100 | – | > 100 | – | > 100 | – | – | – | > 100 | – | > 100 | – | – | – | – | – | > 100 |
| Cc1ccc(S(=O)OCC23CC4CC(CC(C4)C2)C3)cc1 (configuration not stated) | – | > 100 | – | > 100 | – | > 100 | – | > 100 | – | – | – | > 100 | – | > 100 | – | – | – | – | – | > 100 |
| NNC(=O)N/N=C1\C(=O)N(c2ccc(Cl)c(Cl)c2)C(=O)C(=O)C1c1nc2ccccc2s1 (configuration not stated) | – | > 100 | – | > 100 | – | > 100 | – | > 100 | – | – | – | > 100 | – | > 100 | – | – | – | – | – | > 100 |
| COc1cc([N+](=O)[O-])c(OC)cc1-c1nc2sc(Cl)cn2c1/C=N/NC1=NCCN1 | 2.23 | 4.43 | 1.89 | 3.36 | 0.487 | 1.13 | 1.32 | 2.6 | 1.49 | 3.18 | 0.322 | > 100 | – | – | 1.71 | 3.16 | > 100 | > 100 | – | – |
| CC(=O)Oc1ccc(/C(=C(\C)c2ccc(Cl)cc2)c2ccc(OCCN3CCCCC3)cc2)cc1 | 2.05 | 4.11 | – | – | 1.59 | 3.16 | 2.13 | 4.03 | 2.04 | 3.89 | 1.91 | 3.66 | 1.85 | 3.93 | 1.74 | 3.88 | 1.97 | 5.44 | 1.46 | 3 |
| O=C(COC(=O)c1cccc2c(=O)c3ccccc3[nH]c12)Nc1ccc(C(=O)O)cc1 | – | > 100 | – | > 10 | – | > 100 | – | > 100 | – | – | – | > 100 | – | > 100 | – | – | – | – | – | > 100 |
| Cc1cc(C)nc(NS(=O)(=O)c2ccc(Nc3c4ccc(Cl)cc4nc4c(C(=O)NCCN(C)C)cccc34)cc2)n1 | – | > 100 | – | > 100 | – | > 100 | – | > 100 | – | – | – | > 100 | – | > 100 | – | – | – | – | – | > 100 |
| CCN1Cc2nc3sc(C)c(C)c3c(=O)n2C=C1C | 4.56 | 17.6 | 15.1 | 83.4 | 16.1 | 66.4 | 11.5 | > 100 | 8.14 | 24.7 | 40.6 | > 100 | 2.75 | 12.6 | 4.07 | > 100 | 5.12 | 79.6 | – | – |
| COC(=O)C(Cc1nc2ccccc2nc1C)/C(=N\NC(N)=O)C(=O)Nc1cccc([N+](=O)[O-])c1 (configuration not stated) | – | > 100 | – | > 100 | – | > 100 | – | > 100 | – | – | – | > 100 | – | > 100 | – | – | – | – | – | > 100 |
| COC(=O)C1=C(C(=O)OC)C2(C)Nc3ccccc3C2=C(c2ccccc2)C1 (configuration not stated) | – | 39.7 | – | 69.9 | – | 81.4 | – | 62.3 | – | – | – | 42.9 | – | 69.6 | – | – | – | – | – | 54.3 |
| COc1ccc(-n2ccnc2-c2cc(OC)c(OC)c(OC)c2)cc1 | 6.64 | > 100 | 4.19 | 85 | 5.65 | > 100 | – | – | 6.13 | > 100 | 2.37 | > 100 | 2.37 | > 100 | 3.3 | > 100 | 1.85 | 7.82 | 1.87 | 11.9 |
| COc1ccc(C(=O)C(c2ccc(OCc3ccccc3)cc2)c2ccc(OCc3ccccc3)cc2)cc1 | – | – | – | > 100 | – | > 100 | – | > 100 | – | – | – | > 100 | – | > 100 | – | – | – | – | – | > 100 |
